How the values were obtained:
[1] = tested on: A2780; assay: Cytotoxicity against human A2780 cells at 10 uM after 72 hrs by MTT assay; type: cell-based; conditions: a2780, 72 h
[2] = Cytotoxicity against human Bel7402 cells at 10 uM after 72 hrs by MTT assay; type: cell-based; conditions: bel-7402, 72 h
[3] = Cytotoxicity against human HCT8 cells at 10 uM after 72 hrs by MTT assay; type: cell-based; conditions: hct-8, 72 h
[4] = Cytotoxicity against human BGC823 cells at 10 uM after 72 hrs by MTT assay; type: cell-based; conditions: bgc-823, 72 h
[5] = tested on: RAW; assay: Cytotoxicity against mouse RAW cells at 50 uM after 72 hrs by MTT assay; type: cell-based
[6] = tested on: A549; assay: Cytotoxicity against human A549 cells at 10 uM after 72 hrs by MTT assay; type: cell-based; conditions: a549, 72 h
[7] = Cytotoxicity against […] cells at 50 uM after 72 hrs by MTT assay; type: cell-based; conditions: bv-2, 72 h
[8] = (§1) Antiinflammatory activity in […] cells assessed as inhibition of LPS-induced NO production measured 24 hrs post LPS-challenge by spectrophotometry; type: functional, cell-based; conditions: BV-2, 24 h
[9] = tested on: BV-2; assay: as §1; type: functional, cell-based

C/C=C1\CN2C(=O)[C@]3(c4cc(-c5cc([C@@]67C[C@H]8[C@H]9CO[C@@H]6C[C@H]9/C(=C/C)CN8C7=O)c(N)cc5OC)c(OC)cc4N)C[C@H]2[C@H]2CO[C@@H]3C[C@@H]12
Non-toxic: Activity [1] | Activity [2] | Activity [3] | Activity [4] | Activity [5] | Activity [6] | Activity [7]

COc1cc(/C=C/C(=O)CC(=O)/C=C/c2ccc(O)c(OC)c2)ccc1O [CURCUMIN]
3.9 µM: IC50 [8]

CON1C(=O)[C@@]2(C[C@@H]3N=C([C@](C)(O)C[C@@H](C)[C@@]45ON4[C@H]4C[C@@]6(C(=O)N(OC)c7ccccc76)[C@H]6C[C@@H]5[C@@H]4CO6)[C@@H]4C[C@H]2OC[C@H]34)c2ccccc21 (some centres undefined)
Non-toxic: Activity [1] | Activity [2] | Activity [3] | Activity [4] | Activity [5] | Activity [6] | Activity [7]
active: inhibition [9] Dose-dependent effect
10.2 µM: IC50 [8]

CON1C(=O)[C@@]2(C[C@@H]3N=C([C@@](C)(O)C[C@@H](C)[C@@]45ON4[C@H]4C[C@@]6(C(=O)N(OC)c7ccccc76)[C@H]6C[C@@H]5[C@@H]4CO6)[C@@H]4C[C@H]2OC[C@H]34)c2ccccc21 (some centres undefined)
Non-toxic: Activity [1] | Activity [2] | Activity [3] | Activity [4] | Activity [5] | Activity [6] | Activity [7]

— ChEMBL document CHEMBL3091308, “Bisindole alkaloids with neural anti-inflammatory activity from Gelsemium elegans” (J Nat Prod, 2013)
